# Measurements as given in patent publication US20240132513A1, “BENZAZEPINE DERIVATIVES, COMPOSITIONS, AND METHODS FOR TREATING COGNITIVE IMPAIRMENT” (AGENEBIO, INC., priority 2022, published 2024).
# Read-outs that look alike come from different tables or passages of the source.
# Assays:
# α5β3γ2 GABAA R = α5β3γ2 GABAA R (Homo sapiens, UniProt P18507+P31644); test: Binding activity on GABAA R: inhibition of [3H]Ro15-1788 binding, α5 containing receptor
# Outline: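 Membranes from dexamethasone-induced (0.5 μM, 1 day) Ltk cells stably expressing α5β3γ2 receptors, 0.2 mg/ml protein, incubated with [3H]Ro15-1788 for 1 h at 4 °C in 50 mM KH2PO4/1 mM EDTA/0.2 M KCl, pH 7.4. Nonspecific binding with 10 μM diazepam; bound ligand by GF/B filtration and scintillation counting, triplicates.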
# GABAA R (α5β2γ2) = target: T1, GABAA R (α5β2γ2) (Homo sapiens, UniProt P18507+P31644); test: Positive allosteric modulator activity: potentiation of EC20 GABA current in oocytes; format: cell-based
# T1 construct: expressed in transfected cells
# Experimental: On day 1, 1 ng/32 nL of GABAA α5β2γ2 cDNA was injected into one oocyte. Test starts on day 2. The cDNA injected to the oocytes was a mix of alpha, beta and gamma, their ratio is 1:1:10 (by weight) and the total weight of the mixed 3 subunits to be injected in one oocyte was 1 ng in 32 nl volume. The injected oocytes can also be tested on day 3. In such case, the cDNA amount injected to the oocytes should be reduced by 20%.
# Compounds of the present disclosure were tested using the following procedures.
# 8 oocytes were placed in 8 chambers of OpusXpress and superfused with Modified Barth's Saline (MBS) at 3 mL/min. Glass electrodes back-filled with 3M KCl (0.5-3 megaohms) were used. Membrane potential of oocytes was voltage-clamped at −60 mV. • 2).
# Control Test (Diazepam or Methyl 3,5-Diphenylpyridazine-4-Carboxylate) • 1). New oocytes was used to run new test. • 2). […] Oocytes were washed with MBS for 5-10 min. • 4). […] Itest was divided by IGABA to obtain potentiation (%).
# Test Compounds at Multiple Doses • 1). Repeat the above steps 1), 2) and 3) in the control test. • 2). […] Divide Itest by IGABA to obtain potentiation (%). • 3). Discard all tested oocytes, new oocytes were used and the above steps 1) and 2) were repeated to test second concentration of the same compound. Each oocyte was used for only one concentration test for a single test compound. The steps were repeated for other test compounds.
# [1] = read-out: GABA α5 Functional Data: potentiation, @ 100 nM, EC20 GABA, ranges of the column heads
# [2] = ranges of the column heads, [3H]Ro15-1788, Ltk cell membranes
# [3] = read-out: GABA α5 Functional Data: potentiation
# Sequence of α5β3γ2 GABAA R (P31644 32-462): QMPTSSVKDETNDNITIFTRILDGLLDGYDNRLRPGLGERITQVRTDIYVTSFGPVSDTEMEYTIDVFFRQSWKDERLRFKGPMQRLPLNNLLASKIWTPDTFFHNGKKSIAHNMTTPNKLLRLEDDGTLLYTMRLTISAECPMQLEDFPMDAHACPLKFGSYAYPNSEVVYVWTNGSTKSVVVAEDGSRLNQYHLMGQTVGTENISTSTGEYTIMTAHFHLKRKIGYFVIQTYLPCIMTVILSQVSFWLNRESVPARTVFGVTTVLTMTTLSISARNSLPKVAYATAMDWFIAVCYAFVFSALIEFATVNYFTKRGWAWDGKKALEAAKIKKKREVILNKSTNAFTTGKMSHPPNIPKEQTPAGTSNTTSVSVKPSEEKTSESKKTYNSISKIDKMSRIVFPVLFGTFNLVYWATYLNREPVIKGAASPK
# Sequence of α5β3γ2 GABAA R (P28472 26-473 partner): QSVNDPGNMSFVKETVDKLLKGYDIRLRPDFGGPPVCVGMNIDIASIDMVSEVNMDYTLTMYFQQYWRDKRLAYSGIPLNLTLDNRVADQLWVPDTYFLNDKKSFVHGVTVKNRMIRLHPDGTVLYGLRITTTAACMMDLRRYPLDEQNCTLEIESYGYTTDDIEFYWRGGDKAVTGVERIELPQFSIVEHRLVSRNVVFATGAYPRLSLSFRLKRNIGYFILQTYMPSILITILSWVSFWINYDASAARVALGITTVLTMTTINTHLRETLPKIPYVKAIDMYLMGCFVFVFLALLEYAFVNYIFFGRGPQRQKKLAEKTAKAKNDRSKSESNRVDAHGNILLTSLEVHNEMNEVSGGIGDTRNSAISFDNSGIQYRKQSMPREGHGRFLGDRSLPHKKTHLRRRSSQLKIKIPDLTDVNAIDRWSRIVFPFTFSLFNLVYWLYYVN
# Sequence of α5β3γ2 GABAA R (P18507 40-475): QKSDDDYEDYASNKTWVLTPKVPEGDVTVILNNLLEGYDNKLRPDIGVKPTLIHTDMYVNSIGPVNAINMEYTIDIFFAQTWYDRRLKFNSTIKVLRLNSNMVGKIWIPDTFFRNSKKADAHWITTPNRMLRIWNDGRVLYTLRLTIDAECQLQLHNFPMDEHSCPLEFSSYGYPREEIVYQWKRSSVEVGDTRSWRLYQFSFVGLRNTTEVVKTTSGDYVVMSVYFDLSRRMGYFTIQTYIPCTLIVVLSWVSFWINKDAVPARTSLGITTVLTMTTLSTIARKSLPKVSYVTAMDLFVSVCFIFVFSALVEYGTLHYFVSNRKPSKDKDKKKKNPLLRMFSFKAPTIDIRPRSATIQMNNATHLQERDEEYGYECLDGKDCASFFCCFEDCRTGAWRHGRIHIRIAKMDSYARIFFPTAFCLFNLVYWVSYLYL
# T1 sequence (P31644 32-462): as the sequence (P31644 32-462) above
# T1 sequence (P47870 25-512 partner limits assumed): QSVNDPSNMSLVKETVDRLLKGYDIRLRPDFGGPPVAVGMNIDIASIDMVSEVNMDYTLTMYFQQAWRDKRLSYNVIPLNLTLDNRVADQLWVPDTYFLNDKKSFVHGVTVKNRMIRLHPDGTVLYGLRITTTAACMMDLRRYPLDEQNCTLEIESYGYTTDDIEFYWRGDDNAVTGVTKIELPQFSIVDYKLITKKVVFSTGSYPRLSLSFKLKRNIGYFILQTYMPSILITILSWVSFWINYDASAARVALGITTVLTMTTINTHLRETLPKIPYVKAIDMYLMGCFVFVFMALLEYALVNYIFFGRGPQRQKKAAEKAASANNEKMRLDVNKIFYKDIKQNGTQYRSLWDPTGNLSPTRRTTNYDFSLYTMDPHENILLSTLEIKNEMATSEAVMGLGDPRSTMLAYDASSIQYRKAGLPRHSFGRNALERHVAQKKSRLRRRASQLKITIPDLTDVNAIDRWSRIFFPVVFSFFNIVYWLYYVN
# T1 sequence (P18507 40-475): as the sequence (P18507 40-475) above
Ki (α5β3γ2 GABAA R; [2]) [nM],activation at 0.1 µM (GABAA R (α5β2γ2); [3]) [%],SMILES,Ki (α5β3γ2 GABAA R) [nM],activation at 0.1 µM (GABAA R (α5β2γ2); [1]) [%]
–,–,Cn1cc2c(n1)-c1cc(Cl)ccc1-n1cnc(-c3nc(C4COC4)no3)c1C2 [Compound 237],< 100,20 to 50
–,–,Cn1cc2c(n1)-c1cc(Cl)ccc1-n1cnc(-c3nc([C@@H]4CCOC4)no3)c1C2 [Compound 261],< 100,5 to 20
–,–,Cn1cc2c(n1)-c1cc(Cl)ccc1-n1cnc(-c3nc([C@H]4CCOC4)no3)c1C2 [Compound 253],< 100,5 to 20
–,–,COc1ccc2c(c1)-c1nn(C)cc1Cc1c(-c3nc(C(C)C)no3)ncn1-2 [Compound 46],< 100,5 to 20
–,–,COc1ccc2c(c1)-c1nn(C)cc1Cc1c(-c3noc([C@H]4CCCO4)n3)ncn1-2 [Compound 258],< 100,5 to 20
–,–,COc1ccc2c(c1)-c1[nH]ncc1Cc1c(-c3noc(C4COCCO4)n3)ncn1-2 (centres unmarked) [Compound 187],< 100,20 to 50
< 100,> 50,COCc1coc(-c2ncn3c2Cc2cn(C)nc2-c2cc(Cl)ccc2-3)n1 [Compound 284],–,–
–,–,Cn1cc2c(n1)-c1cc(Cl)ccc1-n1cnc(-c3nc(C4CCOCC4)no3)c1C2 [Compound 219],< 100,5 to 20
–,–,CC(C)c1nc(-c2ncn3c2Cc2cn(C(C)C)nc2-c2cc(Cl)ccc2-3)no1 [Compound 150],< 100,20 to 50
< 100,20 to 50,CCn1ncc2c1-c1cc(Cl)ccc1-n1cnc(-c3nc(C4CC4)no3)c1C2 [Compound 139],–,–
–,–,COc1ccc2c(c1)-c1nn(CC3COC3)cc1Cc1c(-c3nc(COC4CCOC4)no3)ncn1-2 (centres unmarked) [Compound 310],< 100,20 to 50
–,–,COc1ccc2c(c1)-c1nn(C3CCOC3)cc1Cc1c(-c3nc(C4CC4)no3)ncn1-2 (centres unmarked) [Compound 247],< 100,20 to 50
–,–,COCCn1cc2c(n1)-c1cc(OC)ccc1-n1cnc(-c3nc(COC)no3)c1C2 [Compound 300],< 100,20 to 50
–,–,CC(C)c1noc(-c2ncn3c2Cc2cn(C(C)C)nc2-c2cc(Cl)ccc2-3)n1 [Compound 138],< 100,20 to 50
–,–,FC(F)(F)c1noc(-c2ncn3c2Cc2cn[nH]c2-c2cc(Cl)ccc2-3)n1 [Compound 106],< 100,20 to 50
–,–,COc1ccc2c(c1)-c1nn(C)cc1Cc1c(-c3noc(C(F)(F)F)n3)ncn1-2 [Compound 130],< 100,> 50
–,–,COc1ccc2c(c1)-c1[nH]ncc1Cc1c(-c3nc(C(C)C)no3)ncn1-2 [Compound 10],< 100,20 to 50
–,–,COc1ccc2c(c1)-c1[nH]ncc1Cc1c(C3=N[C@H](c4ccccc4)CO3)ncn1-2 [Compound 14],< 100,5 to 20
< 100,20 to 50,CCn1cc2c(n1)-c1cc(Cl)ccc1-n1cnc(-c3noc(C4(OC)CC4)n3)c1C2 [Compound 198],–,–
–,–,COc1ccc2c(c1)-c1nn(C)cc1Cc1c(-c3cnn(Cc4ccccn4)c3)ncn1-2 [Compound 282],< 100,5 to 20
< 100,5 to 20,CC(C)n1cc2c(n1)-c1cc(Cl)ccc1-n1cnc(-c3noc(C(F)(F)F)n3)c1C2 [Compound 148],–,–
–,–,COc1ccc2c(c1)-c1nn(C)cc1Cc1c(-c3noc(C)n3)ncn1-2 [Compound 131],< 100,5 to 20
–,–,CCOCc1nc(-c2ncn3c2Cc2cn(C)nc2-c2cc(OC)ccc2-3)no1 [Compound 137],< 100,20 to 50
–,–,Cn1cc2c(n1)-c1cc(Cl)ccc1-n1cnc(-c3nnc(C(F)(F)F)o3)c1C2 [Compound 210],< 100,20 to 50
< 100,20 to 50,COCCn1cc2c(n1)-c1cc(Cl)ccc1-n1cnc(-c3nc(C(C)C)no3)c1C2 [Compound 111],–,–
–,–,CCn1cc2c(n1)-c1cc(OC)ccc1-n1cnc(-c3noc(COCC(F)(F)F)n3)c1C2 [Compound 254],< 100,20 to 50
–,–,COc1ccc2c(c1)-c1nn(C)cc1Cc1c(-c3nc([C@@H]4CCOC4)no3)ncn1-2 [Compound 260],< 100,5 to 20
–,–,Cc1nnc(-c2ncn3c2Cc2cn(C)nc2-c2cc(Cl)ccc2-3)o1 [Compound 209],< 100,20 to 50

Ki (α5β3γ2 GABAA R; [2]) [nM],activation at 0.1 µM (GABAA R (α5β2γ2); [3]) [%],SMILES,Ki (α5β3γ2 GABAA R) [nM],activation at 0.1 µM (GABAA R (α5β2γ2); [1]) [%]
–,–,Cc1noc(-c2ncn3c2Cc2cn[nH]c2-c2cc(Cl)ccc2-3)n1 [Compound 33],< 100,20 to 50
–,–,CC(C)n1cc2c(n1)-c1cc(Cl)ccc1-n1cnc(-c3nc(C4CC4)no3)c1C2 [Compound 154],< 100,5 to 20
–,–,CCn1cc2c(n1)-c1cc(Cl)ccc1-n1cnc(C3=N[C@H](c4ccccc4)CO3)c1C2 [Compound 178],< 100,20 to 50
–,–,Cn1cc2c(n1)-c1cc(Cl)ccc1-n1cnc(-c3nc(COC4COC4)co3)c1C2 [Compound 285],< 100,> 50
–,–,COCc1noc(-c2ncn3c2Cc2cn(C4CCOC4)nc2-c2cc(Cl)ccc2-3)n1 (centres unmarked) [Compound 275],< 100,5 to 20
–,–,FC(F)(F)COCc1nc(-c2ncn3c2Cc2cn(CC4CCCO4)nc2-c2cc(Cl)ccc2-3)no1 (centres unmarked) [Compound 309],< 100,5 to 20
–,–,COCc1nc(-c2ncn3c2Cc2cn(CC4CCCO4)nc2-c2cc(OC)ccc2-3)no1 (centres unmarked) [Compound 293],< 100,20 to 50
–,–,COc1ccc2c(c1)-c1nn(C)cc1Cc1c(-c3nnc(C(F)(F)F)o3)ncn1-2 [Compound 289],< 100,5 to 20
–,–,COCc1noc(-c2ncn3c2Cc2cn(CCOC(F)(F)F)nc2-c2cc(OC)ccc2-3)n1 [Compound 315],< 100,20 to 50
–,–,CC(C)OCc1noc(-c2ncn3c2Cc2cn(C)nc2-c2cc(Cl)ccc2-3)n1 [Compound 242],< 100,20 to 50
–,–,COc1ccc2c(c1)-c1nn(C3CCOC3)cc1Cc1c(-c3nc(C(F)(F)F)no3)ncn1-2 (centres unmarked) [Compound 263],< 100,5 to 20
< 100,5 to 20,CCOCc1nc(-c2ncn3c2Cc2cn(C)nc2-c2cc(Cl)ccc2-3)no1 [Compound 243],–,–
–,–,CC(C)n1cc2c(n1)-c1cc(Cl)ccc1-n1cnc(-c3ncco3)c1C2 [Compound 167],< 100,5 to 20
–,–,CCn1cc2c(n1)-c1cc(Cl)ccc1-n1cnc(C3=N[C@@H](c4ccccc4)CO3)c1C2 [Compound 179],< 100,20 to 50
–,–,Cn1cc2c(n1)-c1cc(Cl)ccc1-n1cnc(-c3noc(C(C)(C)C)n3)c1C2 [Compound 143],< 100,5 to 20
–,–,COc1ccc2c(c1)-c1nn(Cc3cccnc3)cc1Cc1c(-c3nc(C(C)C)no3)ncn1-2 [Compound 125],< 100,20 to 50
–,–,COc1ccc2c(c1)-c1nn(C(C)C)cc1Cc1c(-c3noc(C(C)C)n3)ncn1-2 [Compound 114],< 100,20 to 50
–,–,COc1ccc2c(c1)-c1c(cnn1C)Cc1c(-c3noc(C4(F)CC4)n3)ncn1-2 [Compound 206],< 100,20 to 50
–,–,Cc1noc(-c2ncn3c2Cc2cn(CC4CCOC4)nc2-c2cc(Cl)ccc2-3)n1 (centres unmarked) [Compound 161],< 100,20 to 50
–,–,COc1ccc2c(c1)-c1nn(C)cc1Cc1c(-c3noc(COC(C)(C)C)n3)ncn1-2 [Compound 296],< 100,20 to 50
–,–,COC(C)(C)c1nc(-c2ncn3c2Cc2cn(CC4CCCO4)nc2-c2cc(Cl)ccc2-3)no1 (centres unmarked) [Compound 306],< 100,5 to 20
–,–,COc1ccc2c(c1)-c1nn(Cc3ccccc3)cc1Cc1c(-c3nc(C(C)C)no3)ncn1-2 [Compound 44],< 100,20 to 50
–,–,COc1ccc2c(c1)-c1nn(C)cc1Cc1c(-c3noc([C@@H]4CCOC4)n3)ncn1-2 [Compound 256],< 100,5 to 20
–,–,COc1ccc2c(c1)-c1nn(C)cc1Cc1c(-c3nc(C)no3)ncn1-2 [Compound 20],< 100,5 to 20
< 100,5 to 20,CCOC(=O)c1ncn2c1Cc1cnoc1-c1cc(Cl)ccc1-2 [Compound 57],–,–
< 100,5 to 20,Cn1cc2c(n1)-c1cc(Cl)ccc1-n1cnc(-c3nnc(C4CCOC4)o3)c1C2 (centres unmarked) [Compound 212],–,–
< 100,20 to 50,COc1ccc2c(c1)-c1nn(C)cc1Cc1c(-c3noc(C4CC4)n3)ncn1-2 [Compound 132],–,–
